{"source": "patent US20020142982A1", "about": "“Method for regulating angiogenesis” (priority 1999, published 2002)", "key": {"[1]": {"system": "HUVEC", "experiment": "HUVEC morphogenesis on MATRIGEL (in vitro angiogenesis, tubular length)", "assay_type": "cell-based, human", "conditions": "12-18 hours; SPM and C1P 1 μM", "method": "FIG. 42 is microscope images showing morphogenesis of HUVEC cells plated on Matrigel. HUVEC cells were transduced with 50 MOI of indicated viruses; a,b=none, c=β-gal, d=wild-type EDG-1, e=T236AEDG-1, f=T236AEDG-1+wild-type Akt. Total viral load in c-f is normalized. In vitro angiogenesis assay on Matrigel was conducted in the presence (b to f) or not (a) of 100 nM S1P. The numbers are mean±s.e.m of total tubular length per microscopic field (n=2). Scale bar=170 μm.\nTo investigate SPP induction of angiogenesis, 200 μL aliquots of thawed MATRIGEL were polymerized in 24-well tissue culture plates. HUVEC were trypsinized, resuspended in plain M199 medium containing soybean trypsin inhibitor (10 mg/mL, Sigma Chemical Co., St. Louis, Mo.). Following centrifugation (250 g; 5 minutes), cells were resuspended in plain M199 supplemented with 2% CFBS at a density of 1.5×10^5 cells/mL. 200 μL of cell suspension were seeded on these gels in the presence or absence of SPP (Biomol), for 12-18 hours. Cells were rinsed two times with phosphate buffered saline (PBS), and then fixed with 4% formaldehyde. Results were recorded photographically using a Zeiss Axiovert 100TV microscope equipped with a 5× objective. Five random fields of each well were photographed, and total tubular length was quantified by image analysis (Kinsella, J. et al., Experimental Cell Research 199: 56-62 (1992); Gamble J., et al., J. Cell Biol. 121: 931-943 (1993)).\nScale bar represents 52 microns. These quantitative data are the mean±standard deviation of duplicate determinations from a representative experiment which was repeated at least three times. SPP concentrations (in μM) are indicated in parentheses. For SPP +PTx, HUVEC were pretreated with PTx (200 ng/mL) for 2 hours, trypsinized, plated onto MATRIGEL, then stimulated with 500 nM SPP in the presence of PTx (20 ng/mL) for 16-18 hours. For SPP+C3, HUVEC were pretreated with C3 exoenzyme (10 μg/mL) for 48 hours, trypsinized, plated onto MATRIGEL, stimulated with 500 nM SPP together with the same concentration of C3 exotoxin. SPM, sphingomyelin (1 μM). For C1P, C8-ceramide-1-phosphate (1 μM). The maximal effects achieved by 1 μM SPP was indistinguishable from the positive control medium which contained FBS.\nIn these experiments, HUVEC were plated onto MATRIGEL in the presence of the same amount of corresponding antibodies without or with 500 nM SPP. 16 hours later, total length of HUVEC networks formed on MATRIGEL was quantified."}, "[2]": {"system": "HUVEC", "experiment": "SPP-induced intracellular calcium in HUVEC (Indo-1 fluorescence)", "assay_type": "cell-based, human", "conditions": "HUVEC stimulated with SPP", "method": "Functional assays were used to test for the presence of Gi-coupled and Gq-coupled SPP receptors in HUVEC. First, intracellular calcium levels were measured in response to SPP. For these experiments, cells were grown on 100-mm tissue culture dishes and loaded with the fluorescent calcium-sensitive dye, Indo-1 acetoxymethyl ester (Indo-1/AM, 5 μg/mL; Molecular Probes, Inc., Eugene, Oreg.), for 30 min at 37° C. Cells were then washed with medium M199, briefly trypsinized (0.05% porcine trypsin/0.02% EDTA in HBSS (JRH Biosciences, Lenexa, Kans.), and the trypsin activity was immediately neutralized with soybean trypsin inhibitor (5 μg/mL, Sigma Chemical Co., St. Louis, Mo.). Following centrifugation (250 g×5 min), cells were resuspended in M199 medium to a density of 2.7×10^5 cells/mL. Cells were then stimulated with different doses of SPP. Some cells were pretreated with the Gi inhibitor pertussis toxin (PTx, 500 ng-/mL) for 16 hours. Calcium ion concentration was then quantified by measuring changes in indo-1 fluorescence in 2 mL of cell suspension by a Hitachi F-2000 fluorescence Spectrophotometer with constant stirring. Fluorescence emission was monitored at 400 and 475 nm with excitation at 352 nm. [Ca^+2]1 was calculated as described in Volpi and Berlin, J. Cell Biol., Vol. 107, 2533-39 (1988)."}, "[3]": {"system": "MATRIGEL plugs implanted into athymic mice", "experiment": "MATRIGEL implant model of subcutaneous angiogenesis in athymic mice", "assay_type": "in vivo", "method": "To disclose if SPP regulates angiogenesis in vivo, A MATRIGEL implant model of subcutaneous angiogenesis in […] mice was used. In these experiments, female […] mice (4-6 weeks old) were injected subcutaneously with 0.4 mL MATRIGEL (approximate protein concentration 9.9 mg/mL, Collaborative Research) premixed with vehicle (fatty acid-free BSA, 115 μg/mL, Sigma), or FGF-2 (1.3 μg/mL) in the absence or presence of various concentrations of SPP. Seven days later, MATRIGEL plugs were harvested along with underlying skin and the gross angiogenic response was recorded under a Zeiss Stemi SV6 dissecting microscope. For quantification, MATRIGEL plugs were fixed with 4% paraformaldehyde in PBS, dehydrated in ethanol and xylene, embedded in paraffin, and sections subjected to hematoxylin and eosin staining. Angiogenesis was quantified by direct counting of vessels containing red blood cells residing in the stroma interface and the MATRIGEL implant. Each treatment involved 4 mice. 2 random sections from each were quantified and represented as mean±standard deviation. […]\nIn these experiments, MATRIGEL plugs were fixed, dehydrated, embedded, and sections were subjected to hematoxylin and eosin staining. Angiogenesis was quantified by direct counting of vascular structures as described. Vascular density for each treatment was quantified and represented as mean±standard deviation (n=4). […]"}}, "data": [{"compound": "CCCCCCCCCCCCC/C=C/[C@@H](O)[C@@H](N)COP(=O)(O)O", "note": "[SPP, sphingosine-1-phosphate]", "values": [{"measurement": "HUVEC morphogenesis on MATRIGEL (tubular length)", "setting": "[1]", "result": "promoted HUVEC morphogenesis in a dose-dependent manner"}, {"measurement": "intracellular calcium response", "setting": "[2]", "result": "robust calcium response"}, {"measurement": "angiogenesis with SPP alone", "setting": "[3]; MATRIGEL plug without FGF-2", "result": "did not induce significant angiogenesis"}, {"measurement": "FGF-2 induced angiogenesis (vascular density)", "setting": "[3]; SPP + FGF-2 1.3 μg/mL in MATRIGEL plug, seven days", "result": "dramatically enhanced"}]}]}
